Measured values reported in patent US20100324829A1, “METHOD OF SELECTING HLA-DP4 LIGANDS AND THE APPLICATIONS THEREOF” (priority 2001, published 2010).
Where a chain is given by its changes, count along the chain named.

Columns and labels:
[1] = biological target: T1, HLA-DP4 molecule DPA1*0103/DPB1*0401 (DP401) (Homo sapiens, UniProt P04440+P20036); experiment: biochemical; format: binding; conditions: for binding to the HLA-DP*0401 molecule: FIG. 1, in words, tracer bUNK1 10 nM
T1 construct: purified from various human B lymphocyte lines transformed with the Epstein Barr virus (EBV), which are homozygotes for DP; endogenous in cells
T1 sequence (P20036 29-260): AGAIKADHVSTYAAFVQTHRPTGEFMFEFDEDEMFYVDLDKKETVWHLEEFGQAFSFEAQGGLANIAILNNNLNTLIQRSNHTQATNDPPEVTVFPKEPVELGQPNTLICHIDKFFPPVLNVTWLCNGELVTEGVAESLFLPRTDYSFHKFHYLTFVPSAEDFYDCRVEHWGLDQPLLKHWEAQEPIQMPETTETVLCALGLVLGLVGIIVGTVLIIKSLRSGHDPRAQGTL
T1 sequence (P04440 30-258): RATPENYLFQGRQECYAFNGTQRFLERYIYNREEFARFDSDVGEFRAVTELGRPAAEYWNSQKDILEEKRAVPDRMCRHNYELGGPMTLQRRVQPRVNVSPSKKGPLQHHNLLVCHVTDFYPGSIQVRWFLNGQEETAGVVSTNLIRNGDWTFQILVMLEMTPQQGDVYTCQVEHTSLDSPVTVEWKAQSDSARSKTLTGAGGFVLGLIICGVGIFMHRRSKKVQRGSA

[2] = biological target: T2, HLA-DP4 molecule DPA1*0103/DPB1*0402 (DP402) (Homo sapiens, UniProt P04440+P20036); experiment: biochemical; format: binding
T2 construct: purified from various human B lymphocyte lines transformed with the Epstein Barr virus (EBV), which are homozygotes for DP; endogenous in cells
T2 sequence (P20036 29-260): T1 sequence (P20036 29-260)
T2 sequence (P04440 30-258 A65V/A84D/A85E): T1 sequence (P04440 30-258) with A36V, A55D, A56E

[3] = biological target: T3, HLA-DP4 molecule DPA1*0103/DPB1*0402 (DP402) (Homo sapiens, UniProt P04440+P20036, A65V/A84D/A85E/L207M); experiment: biochemical; format: binding; conditions: for binding to the HLA-DP*0402 molecule: FIG. 1, in words, tracer bUNK1 10 nM
T3 construct: purified from various human B lymphocyte lines transformed with the Epstein Barr virus (EBV), which are homozygotes for DP; endogenous in cells
T3 sequence (P20036 29-260): T1 sequence (P20036 29-260)
T3 sequence (P04440 30-258 A65V/A84D/A85E): T1 sequence (P04440 30-258) with A36V, A55D, A56E

[4] = biological target: T4, DP401 encoded by the DPA1*0103/DPB1*0401 allele (Homo sapiens, UniProt P04440+P20036); conditions: in words, summary of table V
T4 sequence (P20036 29-260): T1 sequence (P20036 29-260)
T4 sequence (P04440 30-258): T1 sequence (P04440 30-258)

[5] = DP*0401 IC50 (nM), Table XV, HLA-DP4-binding activity
[6] = IC50 (nM) 401, Table XIII, binding to DPB1*0401, competition binding assay
[7] = DP*0402 IC50 (nM), Table XV, HLA-DP4-binding activity
[8] = IC50 (nM) 402, Table XIII, binding to DPB1*0402, competition binding assay

In the case of KYFAATQWEPLAA [UNK F10W], the “Loss of binding DP*0401” value [1] is reported as 1, the “Loss of binding to DP*0401 (ratio of the IC50 values for the mutant peptide and for the UNK1 peptide)” value [1] is reported as 2.2 and the “Loss of binding to DP*0402 (ratio of the IC50 values for the mutant peptide and for the UNK1 peptide)” value [2] is reported as 2.5. For the same molecule, the “Loss of binding DP*0402” value [3] was 1.
FNNFTVSFWLRVPKVSA [bTT 947-963] was tested, and the DP4-binding capacity [4] was “low”.
In the case of “GVQIVRQIRSGERFLKIWSQ [bNS-p2, reference compound]”, the DP4-binding capacity [4] is reported as “intermediate”.
In the case of “GPGAPADVQYDLYLNVANRR [bIL3 127-146, reference compound]”, the DP4-binding capacity [4] is reported as “high”.
With RELWWVFYAGDRALEEPHAE [bUL21 283-302] the DP4-binding capacity [4] was “intermediate”.
In the case of “IAFNSGMEPGVVAEKV [bMT 451-466, reference compound]”, the DP4-binding capacity [4] is reported as “low”.
`CC[C@H](C)[C@H](NC(=O)[C@H](Cc1ccccc1)NC(=O)[C@H](Cc1c[nH]cn1)NC(=O)[C@H](C)NC(=O)[C@H](CC(=O)O)NC(=O)[C@H](CCC(=O)O)NC(=O)[C@H](CCCNC(=N)N)NC(=O)[C@@H]1CCCN1C(=O)[C@@H](N)CCSC)C(=O)N[C@@H](Cc1ccc(O)cc1)C(=O)NCC(=O)N[C@@H](Cc1ccc(O)cc1)C(=O)N1CCC[C@H]1C(=O)N[C@@H](CCCCN)C(=O)N[C@@H](CCCCN)C(=O)NCC(=O)N[C@@H](Cc1c[nH]cn1)C(=O)NCC(=O)N[C@@H](Cc1c[nH]cn1)C(=O)N[C@@H](CO)C(=O)O` [MART1 1-20] showed an IC50 [1, 5] greater than 10000 nM, an IC50 [1, 6] greater than 10000 nM and an IC50 [3, 7] greater than 10000 nM. For the same molecule, the IC50 [3, 8] was greater than 10000 nM.
In the case of FNNFTVSFWLRVPKVSA [TT 947-963], the “binding to the HLA-DP*0401 molecule” value [1] is reported as “effectively bind” and the “binding to the HLA-DP*0402 molecule” value [3] is reported as “effectively bind”.
In the case of LLTQHFVQENYLEY [bMAG 245-258], the DP4-binding capacity [4] is reported as “intermediate”.
With “PKYVKQNTLKLAT [HA 306-318, reference compound]” the “binding to the HLA-DP*0401 molecule” value [1] was “do not bind” and the “binding to the HLA-DP*0402 molecule” value [3] was “do not bind”.
With `CC[C@H](C)[C@H](NC(=O)[C@@H](NC(=O)[C@H](CC(=O)O)NC(=O)[C@H](C)NC(=O)[C@H](CO)NC(=O)[C@H](CC(N)=O)NC(=O)[C@H](CCCCN)NC(=O)[C@H](CC(C)C)NC(=O)[C@H](CS)NC(=O)[C@@H](N)CC(=O)O)[C@@H](C)O)C(=O)N[C@@H](CO)C(=O)N[C@@H](CO)C(=O)N[C@@H](Cc1ccc(O)cc1)C(=O)N[C@@H](Cc1ccccc1)C(=O)N[C@H](C(=O)NCC(=O)N[C@@H](CCCCN)C(=O)N[C@@H](CCSC)C(=O)O)C(C)C` [69-86] the IC50 [1, 6] was greater than 10000 nM, the IC50 ([1]; IC50 (nM) DP0401, Api m1 overlapping peptides, tracer bUNK 1-17 10 nM, pH 5, 24 h) was greater than 10000 nM and the IC50 [3, 8] was greater than 10000 nM. It also gave an IC50 ([3]; IC50 (nM) DP0402, Api m1 overlapping peptides, tracer bUNK 1-17 10 nM, pH 5, 24 h) greater than 10000 nM.
`CC(C)C[C@H](NC(=O)[C@H](Cc1ccc(O)cc1)NC(=O)[C@H](CC(N)=O)NC(=O)[C@H](CCC(=O)O)NC(=O)[C@H](CCC(N)=O)NC(=O)[C@@H](NC(=O)[C@H](Cc1ccccc1)NC(=O)[C@H](Cc1c[nH]cn1)NC(=O)[C@H](CCC(N)=O)NC(=O)[C@@H](NC(=O)[C@H](CC(C)C)NC(=O)[C@@H](N)CC(C)C)[C@@H](C)O)C(C)C)C(=O)N[C@@H](CCC(=O)O)C(=O)N[C@@H](Cc1ccc(O)cc1)C(=O)O` [MAG 245-258] was tested, and the IC50 [1, 5] was 250 nM and the IC50 [3, 7] was 400 nM.
Work on `CSCC[C@H](NC(=O)[C@@H](N)CC(C)C)C(=O)N[C@@H](CC(=O)O)C(=O)N[C@@H](CCCCN)C(=O)N[C@@H](CO)C(=O)N[C@@H](CC(C)C)C(=O)N[C@@H](Cc1c[nH]cn1)C(=O)N[C@H](C(=O)NCC(=O)N[C@H](C(=O)N[C@@H](CCC(N)=O)C(=O)N[C@@H](CS)C(=O)N[C@@H](C)C(=O)N[C@@H](CC(C)C)C(=O)N[C@H](C(=O)N[C@@H](CCCNC(=N)N)C(=O)N[C@@H](CCCNC(=N)N)C(=O)N[C@@H](CS)C(=O)N1CCC[C@H]1C(=O)N[C@@H](CCC(N)=O)C(=O)O)[C@@H](C)O)[C@@H](C)O)C(C)C` [MART1 62-72] yielded an IC50 [1, 5] greater than 10000 nM, an IC50 [1, 6] greater than 10000 nM and an IC50 [3, 7] greater than 10000 nM. The IC50 [3, 8] was greater than 10000 nM.
`CC[C@H](C)[C@H](NC(=O)[C@H](CC(C)C)NC(=O)[C@@H](N)CC(C)C)C(=O)NCC(=O)N[C@@H](CS)C(=O)N[C@@H](Cc1c[nH]c2ccccc12)C(=O)N[C@@H](Cc1ccc(O)cc1)C(=O)N[C@@H](CS)C(=O)N[C@@H](CCCNC(=N)N)C(=O)N[C@@H](CCCNC(=N)N)C(=O)N[C@@H](CCCNC(=N)N)C(=O)N[C@@H](CC(N)=O)C(=O)NCC(=O)N[C@@H](Cc1ccc(O)cc1)C(=O)N[C@@H](CCCNC(=N)N)C(=O)N[C@@H](C)C(=O)N[C@@H](CC(C)C)C(=O)N[C@@H](CCSC)C(=O)N[C@@H](CC(=O)O)C(=O)N[C@@H](CCCCN)C(=O)O` [MART1 41-60] showed an IC50 [1, 5] greater than 10000 nM, an IC50 [1, 6] greater than 10000 nM and an IC50 [3, 7] greater than 10000 nM. For the same molecule, the IC50 [3, 8] was greater than 10000 nM.
